Measured values published in paper PMC8049461, “The anti-depressant effects of a novel PDE4 inhibitor derived from resveratrol” (Pharmaceutical Biology, 2021).

Experiments:
[1] = tested on: chronic unpredictable stress mice; assay: Sucrose preference test (SPT) after chronic unpredictable stress; type: in vivo, male ICR mice; conditions: RES003 5 and 10 mg/kg (medium and large dose), once a day for 10 days, CUS mice, vs model group, p < 0.01
Description: (§1) Male ICR mice, weighing between 22–25 g, were obtained from the Animal Centre at Changzhou University. All experiments were carried out according to the National Institute of Health Guide for Care and Use of Laboratory Animals (1996) and were approved by the Institutional Animal Care and Use Committee of Changzhou University (NO. Y20180023). Fluoxetine and resveratrol were purchased from Sigma Chemical Co. (St Louis, MO). For animal behavioural tests, RES003 and rolipram were dissolved in saline containing 5% DMSO, 5% Solutol and 90% saline. The positive control drug fluoxetine was dissolved simply in saline. Mice were given intra-gastric (i.g.) administration (RES003: 2.5, 5.0 and 10 mg/kg) or intraperitoneal (i.p.) injections (fluoxetine: 5 mg/kg and rolipram: 10 mg/kg) in a volume of 10 mL/kg body weight.
(§2) The chronic unpredictable stress procedure was carried out as described previously with minor modification (Polster and Fiskum [2004]). […]
(§3) After the chronic un-predictable stress (CUS) procedure, sucrose preference test was assessed on the following day, and then forced swimming test (FST) was carried out the next day. […]
The SPT was performed according to the previous description with minor modification (Yu et al. [2013]). […] The sucrose preference was calculated as the ratio of the consumed sucrose solution to the total amount of liquid consumed.

pCREB/CREB = assay: Western blot of pCREB/CREB in brain tissue of CUS mice; type: in vivo, male ICR mice; conditions: RES003 10 mg/kg, vs model group, p < 0.05
Description: as §1, §2, §3
(§4) The brain tissues were dissected and stored at −80 °C until analysis after mice were sacrificed. […] The detection and quantification of specific bands were performed using a fluorescence scanner and ‘Image-Pro’ software. […]

PDE2 = PDE2 (Homo sapiens, UniProt O00408); assay: PDE enzymatic assay (radioactive tracer, 3H-cAMP/3H-cGMP); type: biochemical; conditions: 3H-cAMP or 3H-cGMP substrate, 24 °C, 30 min; read-out: IC50 against PDE2
Sequence of PDE2 (O00408 whole entry): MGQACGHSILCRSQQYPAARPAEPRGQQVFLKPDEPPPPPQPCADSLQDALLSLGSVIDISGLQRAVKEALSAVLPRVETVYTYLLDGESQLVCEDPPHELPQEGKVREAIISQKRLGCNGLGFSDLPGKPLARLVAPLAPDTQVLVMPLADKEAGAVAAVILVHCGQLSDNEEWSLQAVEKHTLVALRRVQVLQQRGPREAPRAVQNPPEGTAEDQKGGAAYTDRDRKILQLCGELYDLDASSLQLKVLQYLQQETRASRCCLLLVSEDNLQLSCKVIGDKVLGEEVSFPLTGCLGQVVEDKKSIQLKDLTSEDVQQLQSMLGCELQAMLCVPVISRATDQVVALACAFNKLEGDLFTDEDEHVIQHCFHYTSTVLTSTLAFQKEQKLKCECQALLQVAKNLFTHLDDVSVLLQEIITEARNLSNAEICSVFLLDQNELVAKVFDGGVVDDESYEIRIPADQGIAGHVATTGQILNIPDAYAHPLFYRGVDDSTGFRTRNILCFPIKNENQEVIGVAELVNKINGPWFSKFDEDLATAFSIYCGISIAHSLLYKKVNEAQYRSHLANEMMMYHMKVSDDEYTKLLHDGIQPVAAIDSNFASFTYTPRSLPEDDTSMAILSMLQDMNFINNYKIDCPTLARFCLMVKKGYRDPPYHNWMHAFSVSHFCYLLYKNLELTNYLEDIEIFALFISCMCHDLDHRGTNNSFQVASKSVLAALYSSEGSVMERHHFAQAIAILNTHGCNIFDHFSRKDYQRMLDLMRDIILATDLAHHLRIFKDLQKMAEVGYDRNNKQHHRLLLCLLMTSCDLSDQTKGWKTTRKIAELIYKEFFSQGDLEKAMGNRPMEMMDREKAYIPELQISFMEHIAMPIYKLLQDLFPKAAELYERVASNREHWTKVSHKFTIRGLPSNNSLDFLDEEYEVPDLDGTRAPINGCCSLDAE
Description: (§5) All the enzymatic activities of PDEs were assayed by using ^3H- cyclic guanosine monophosphate (cGMP) or ^3H-cAMP as the substrate. PDEs were firstly incubated with the reaction mixture of 50 mmol/L Tris-hydrogen chloride (HCl), pH 7.8, 10 mmol/L magnesium chloride (MgCl2) and ^3H-cAMP or ^3H-cGMP (40, 000 cpm/assay) at 24 °C for 30 min. Then, the reaction was terminated by addition of zinc sulfate and barium hydroxide. Activity of test compounds was assessed by measuring the amount of ^3H-cGMP or ^3H-cAMP resulting from enzyme cleavage. The reaction product ^3H-AMP or ^3H-GMP was precipitated by adding barium sulfate, while unreacted ^3H-cAMP or ^3H-cGMP remained in the supernatant. Radioactivity in the supernatant was measured in 2.5 mL of ultima gold liquid scintillation. At least eight concentrations of inhibitors (0.05–500 μM) were used in the presence of suitable substrates for the measurement of half maximal inhibitory concentration IC50 values, which were calculated by non-linear regression. Each measurement was repeated three times.

PDE1 = assay: as above; type: biochemical; conditions: 3H-cAMP or 3H-cGMP substrate, 24 °C, 30 min; read-out: IC50 against PDE1
Description: as §5

PDE3 = assay: as above; type: biochemical; conditions: 3H-cAMP or 3H-cGMP substrate, 24 °C, 30 min; read-out: IC50 against PDE3
Description: as §5

PDE5 = PDE5 (Homo sapiens, UniProt O76074); assay: as above; type: biochemical; conditions: 3H-cAMP or 3H-cGMP substrate, 24 °C, 30 min; read-out: IC50 against PDE5
Description: as §5

PDE4 = assay: as above; type: biochemical; conditions: for IC50: 3H-cAMP or 3H-cGMP substrate, 24 °C, 30 min, read-out: IC50 against PDE4
Description: as §5

BDNF = assay: Western blot of BDNF expression in brain tissue of CUS mice; type: in vivo, male ICR mice; conditions: RES003 5 and 10 mg/kg, vs model group, p < 0.05 and 0.01
Description: as §1, §2, §3, §4

mice = assay: Locomotor activity (LA) test, open-field chamber; type: in vivo, male ICR mice; conditions: RES003 at the dose that significantly reduced immobility response, 30 min before test
Description: as §1
LA test was assessed using an open-field chamber according to previous procedure (Li et al. [2014]). The floor of the chamber was divided into 16 identical squares. Mice were individually placed in the centre of the chamber and allowed to acclimatize for 15 min. Their paws were contacted or disconnected the active bars which can produce random configurations. The locomotor counts of mice were measured by counting the number of line crossings in the following 10 min.

[2] = tested on: chronic unpredictable stress mice; assay: Forced swimming test (FST) after chronic unpredictable stress; type: in vivo, male ICR mice; conditions: fluoxetine 5 mg/kg i.p., CUS mice, p < 0.05
Description: as §1, with “Mice were given intra-gastric (i.g.) administration (RES003: 2.5, 5.0 and 10 mg/kg) or intraperitoneal (i.p.) injections (fluoxetine: 5 mg/kg and rolipram: 10 mg/kg) in a volume of 10 mL/kg body weight.” left out
as §3
According to the previous description, animals were individually placed in glass cylinders (25 cm height, 10 cm diameter) containing 10 cm depth of water at 24 ± 1 °C for 6 min, allowing for free swimming (Porsolt et al. [1978]). […] A mouse was determined to be immobile when there were only small movements necessary to keep its head above water. The immobility time was recorded during the 5 min testing period.

With `Oc1ccc(-c2cc(-c3cc(O)cc(O)c3)n[nH]2)cc1` [RES003, 5-[5-(4-Hydroxyphenyl)-1H-pyrazol-3-yl]benzene-1,3-diol] the “consumption of sugar water (sucrose preference)” value [1] was “significantly increase the consumption of sugar water”, the “ratio of pCREB/CREB in brain tissue” value (pCREB/CREB) was “reversed” and the IC50 (PDE2) was over 100 µM. It also gave an IC50 (PDE1) of 92.6 ± 8.3 µM, an IC50 (PDE3) of over 100 µM and an IC50 (PDE5) of over 100 µM. For the same molecule, the IC50 (PDE4) was 0.87 µM, the “selectivity for PDE4 over PDE1, PDE2, PDE3 and PDE5” value (PDE4; ratio of IC50 values) was over 100 fold and the “BDNF expression in brain tissue” value (BDNF) was “significantly upregulated”. The “locomotor activity (line crossings in 10 min)” value (mice) was “did not affect the locomotor activity”.
For `CNCCC(Oc1ccc(C(F)(F)F)cc1)c1ccccc1` (stereo not shown) [fluoxetine, Fluoxetine, reference compound], the “immobility time in forced swimming test” value [2] was “significant anti-depressant-like effects”.
In the case of `Oc1ccc(/C=C/c2cc(O)cc(O)c2)cc1` [resveratrol, Resveratrol], the IC50 (PDE2) is reported as over 100 µM, the IC50 (PDE1) is reported as 8.7 ± 1.1 µM and the IC50 (PDE3) is reported as 12.7 ± 2.1 µM. It also gave an IC50 (PDE5) of over 100 µM and an IC50 (PDE4) of 18.8 µM.
